Structures can show the parent of a compound that is named as a salt.
Experiment: in vitro
Settings: rat, gh3-tre-luc cells, AC50 (uM) modified / 1000

Point of comparison: `S=C(SSSSSSC(=S)N1CCCCC1)N1CCCCC1` [Bis(1-piperidinylthioxomethyl)hexasulfide], CC50 at 24 h 0.0827 µM. Against it:
- COC1=C(OC)C(=O)C(C/C=C(\C)CC/C=C(\C)CC/C=C(\C)CC/C=C(\C)CC/C=C(\C)CC/C=C(\C)CC/C=C(\C)CC/C=C(\C)CC/C=C(\C)CCC=C(C)C)=C(C)C1=O [Ubidecarenone] — higher, > 50 µM
- CN(C)C(=O)Oc1cccc([N+](C)(C)C)c1 [Neostigmine bromide] — higher, > 50 µM
- O=c1ccc2ccccc2o1 [Coumarin] — higher, > 90 µM
- Nc1ccccn1 [2-Aminopyridine] — higher, > 90 µM
- O=S(O)CO [Hydroxymethanesulfinic acid monosodium salt dihydrate] — higher, > 50 µM
- CCC(=O)O[C@]1(C(=O)CCl)[C@@H](C)C[C@H]2[C@@H]3CCC4=CC(=O)C=C[C@]4(C)[C@@]3(F)[C@@H](O)C[C@@]21C [Clobetasol propionate] — higher, > 50 µM
- Clc1cc(Cl)cc(Cl)c1 [1,3,5-Trichlorobenzene] — higher, > 90 µM
- CC(C)Cc1nccs1 [2-(2-Methylpropyl)thiazole] — higher, > 90 µM
- c1ccc2c(c1)Sc1ccccc1N2C[C@@H]1CN2CCC1CC2 [Levomequitazine] — higher, > 50 µM
- CC(=O)OCC(C)C [Isobutyl acetate] — higher, > 90 µM
- O=C1C(I)=CC(=C(c2cc(I)c(O)c(I)c2)c2ccccc2C(=O)O)C=C1I [Iodophthalein sodium] — 500-fold higher, 41.3 µM
- CC(C)[C@@H](N)C(=O)O [D-Valine] — higher, > 50 µM
- CN(C)CCO [Dimethylaminoethanol] — higher, > 90 µM
- CCCCCCCC[N+](CCCCCCCC)(CCCCCCCC)CCCCCCCC [Tetra-N-octylammonium bromide] — 31-fold higher, 2.56 µM
- COCCOCCOCCOCCO [2,5,8,11-Tetraoxatridecan-13-ol] — higher, > 90 µM
- CCN(CC)CCOC(=O)c1cccnc1 [Nicametate citrate] — higher, > 50 µM
- CCC(C)c1ccc(O)cc1 (stereo not drawn) [4-(Butan-2-yl)phenol] — 750-fold higher, 61.9 µM
- Cl[C@@H]1OCCO[C@H]1Cl [2,3-Dichloro-p-dioxane] — higher, > 90 µM
- CC(=O)CCc1ccc(O)cc1 [4-(4-Hydroxyphenyl)butan-2-one] — higher, > 90 µM
- CCOCCn1c(N2CCCN(C)CC2)nc2ccccc21 [Emedastine difumarate] — higher, > 50 µM
- O=C(O)C1=C(CSc2nnnn2CS(=O)(=O)O)CS[C@@H]2[C@H](NC(=O)[C@H](O)c3ccccc3)C(=O)N12 [Cefonicid sodium] — higher, > 50 µM
- CS(=O)(=O)NC(=O)CCC/C=C\C[C@H]1C(=O)C[C@@H](O)[C@@H]1/C=C/[C@@H](O)COc1ccccc1 [Sulprostone] — higher, > 50 µM
- C=C1CC[C@H]2C[C@@H]1C2(C)C [beta-Pinene] — higher, > 90 µM
- CCOc1cc(C(C)(C)C)ccc1C1COC(c2c(F)cccc2F)=N1 (stereo not drawn) [Etoxazole] — 210-fold higher, 17.5 µM
- CCCCCOc1ccc(C2SC(=O)NC2=O)cc1OCC (stereo not drawn) [Risarestat] — higher, > 50 µM
- F/C(COc1ccc2c(c1)[nH]c1ccccc12)=C1/CN2CCC1CC2 [2-{[(2E)-2-(1-Azabicyclo[2.2.2]oct-3-ylidene)-2-fluoroethyl]oxy}-9H-carbazole] — 92-fold higher, 7.59 µM
- Nc1ncnc2c1ncn2[C@@H]1O[C@H](COP(=O)(O)O)[C@@H](O)[C@H]1O [Adenosine 5'-phosphate] — higher, > 50 µM
- Nc1c(Cl)cc(Cl)cc1Cl [2,4,6-Trichloroaniline] — higher, > 90 µM
- CCCCCCCCOCCCN [3-(Octyloxy)propan-1-amine] — 140-fold higher, 11.8 µM
- C=C(c1ccc(C(=O)O)cc1)c1cc2c(cc1C)C(C)(C)CCC2(C)C [Bexarotene] — 190-fold higher, 16.1 µM
- Nc1cc(Cl)c(-c2cc(Cl)c(N)cc2Cl)cc1Cl [2,2',5,5'-Tetrachlorobenzidine] — 170-fold higher, 13.7 µM
- CN1C(=O)N(C)C(O)C1O (stereo not drawn) [4,5-Dihydroxy-1,3-dimethylimidazolidin-2-one] — higher, > 90 µM
- C/C=C/C=N/NC(=O)c1ccncc1 [Crotoniazide] — higher, > 50 µM
- CC[N+]1(C)CCCC(OC(=O)C(O)(c2ccccc2)c2ccccc2)C1 (stereo not drawn) [Pipenzolate bromide] — higher, > 50 µM
- CCOC(=O)C1=NN(c2ccccc2)C(=O)C1 [Ethyl 5-oxo-1-phenyl-4,5-dihydro-1H-pyrazole-3-carboxylate] — higher, > 90 µM
- CCCCCCOC(=O)C(C)CC (stereo not drawn) [Hexyl 2-methylbutanoate] — higher, > 90 µM
- CCCCCCCCCC(C)C=O (stereo not drawn) [2-Methylundecanal] — higher, > 90 µM
- CSc1cnccn1 [Pyrazinyl methyl sulfide] — higher, > 90 µM
- COc1c(Cl)c(Cl)c(Cl)c(Cl)c1Cl [Pentachloroanisole] — higher, > 90 µM
- Cc1cccc(C(C)(C)C)c1O [2-tert-Butyl-6-methylphenol] — higher, > 90 µM
- C[C@@H](O)C(=O)O [D-Lactic acid] — higher, > 100 µM
- O=C(O)c1snc(Cl)c1Cl [3,4-Dichloro-5-isothiazolecarboxylic acid] — higher, > 90 µM
- CCN(CC)C(=O)Nc1ccc(OCC(O)CNC(C)(C)C)c(C(C)=O)c1 (stereo not drawn) [Celiprolol hydrochloride] — higher, > 50 µM
- CC[C@H](C)COC(=O)/C=C/c1ccc(N=Cc2ccc(OC)cc2)cc1 [(+)-2-Methylbutyl-4-methoxybenzyladine-4'-aminocyannate] — higher, > 90 µM
- CC[C@H]1CN2CCc3cc(OC)c(OC)cc3[C@@H]2C[C@@H]1C[C@H]1NCCc2cc(OC)c(OC)cc21 [Emetine dihydrochloride] — within 1.5-fold, 0.065 µM
- CN1CCN(C(c2ccccc2)c2ccc(Cl)cc2)CC1 (stereo not drawn) [Chlorcyclizine hydrochloride] — 53-fold higher, 4.39 µM
- O=C1OC(=O)c2ccccc21 [Phthalic anhydride] — higher, > 90 µM
- CNCc1cc(F)ccc1Oc1ccc(Cl)c(Cl)c1 [CP-607366] — 940-fold higher, 77.7 µM
- NC(=O)c1ccc(N)cc1 [4-Aminobenzamide] — higher, > 90 µM
- CCCCNc1cc(C(=O)O)cc(S(N)(=O)=O)c1Oc1ccccc1 [Bumetanide] — higher, > 20 µM
- COC(=O)CCCCCCCCC(=O)OC [Dimethyl decanedioate] — higher, > 90 µM
- CC(C)C[C@H](NC(=O)CNC(=O)[C@H](Cc1ccc(O)cc1)NC(=O)[C@H](CO)NC(=O)[C@H](Cc1c[nH]c2ccccc12)NC(=O)[C@H](Cc1cnc[nH]1)NC(=O)[C@@H]1CCC(=O)N1)C(=O)N[C@@H](CCCNC(=N)N)C(=O)N1CCC[C@H]1C(=O)NCC(N)=O [Gonadorelin hydrochloride] — higher, > 50 µM
- CN(C)CCCN1c2ccccc2Sc2ccc(Cl)cc21 [Chlorpromazine hydrochloride] — 130-fold higher, 10.6 µM
- COC(=O)CCC(=O)CN [Methyl aminolevulinate hydrochloride] — higher, > 50 µM
- CN(C[C@@H](CC[N+]12CCC(C3CCCCC3)(CC1)CC2)c1ccc(Cl)c(Cl)c1)C(=O)c1cc(C(F)(F)F)cc(C(F)(F)F)c1 [UK-337312] — 210-fold higher, 17 µM
- COC(=O)N[C@H](C(=O)N[C@@H](Cc1ccccc1)[C@@H](O)CN(Cc1ccc(-c2ccccn2)cc1)NC(=O)[C@@H](NC(=O)OC)C(C)(C)C)C(C)(C)C [Atazanavir] — higher, > 50 µM
- CCO[Si](C)(OCC)OCC [Triethoxymethylsilane] — higher, > 90 µM
- Nc1cc(Cl)c(N=C2NCCN2)c(Cl)c1 [Apraclonidine hydrochloride] — higher, > 50 µM
- CC(=O)N[C@@H](CCC(N)=O)C(=O)O [Nalpha-Acetyl-L-glutamine] — higher, > 50 µM
- CC1=C2[C@@H]([C@H](C)CC[C@H]2/C=C(\C)C(=O)O)[C@H](O)C1 [Hydroxyvalerenic acid] — higher, > 90 µM
- Cc1cccc(O)c1N [2-Amino-m-cresol] — 810-fold higher, 66.6 µM
- CCc1ccc(C(c2ccc(CC)cc2)C(Cl)Cl)cc1 [p,p'-Ethyl-DDD] — 1000-fold higher, 82.4 µM
- C[C@@H](N)C(=O)O [D-Alanine] — higher, > 50 µM

Same assay, conditions: rat, gh3-tre-luc cells, AC50 (uM) modified / 1000, Tox21_110001=Tox21_113309; viability, 1 nM T3 present, 24 h

For `COc1ccc2c(C(=O)c3ccc(Cl)cc3)c(C)n(CC(=O)O)c2c1` [Clometacine], the CC50 at 24 h was greater than 50 µM.

Same assay, conditions: rat, gh3-tre-luc cells, AC50 (uM) modified / 1000, Tox21_110001=Tox21_113540; viability, 1 nM T3 present, 24 h

With `Oc1ccc2c3c1O[C@H]1[C@@H](O)C=C[C@H]4[C@@H](C2)NCC[C@@]341` [Normorphine] the CC50 at 24 h was greater than 50 µM.

Same assay, conditions: rat, gh3-tre-luc cells, AC50 (uM) modified / 1000, Tox21_110001=Tox21_200144; viability, 1 nM T3 present, 24 h

Compound `Cc1ccc(N=C=O)cc1N=C=O` [Toluene diisocyanate] has a CC50 at 24 h greater than 90 µM.

Same assay, conditions: rat, gh3-tre-luc cells, AC50 (uM) modified / 1000, Tox21_110001=Tox21_201129; viability, 1 nM T3 present, 24 h

`C=CCOC(=O)c1ccccc1N` [Allyl anthranilate] gave a CC50 at 24 h greater than 90 µM.

Same assay, conditions: rat, gh3-tre-luc cells, AC50 (uM) modified / 1000, Tox21_110001=Tox21_201502; viability, 1 nM T3 present, 24 h

`CC(=O)C=Cc1ccccc1` [Methyl styryl ketone] gave a CC50 at 24 h greater than 90 µM.

Same assay, conditions: rat, gh3-tre-luc cells, AC50 (uM) modified / 1000, Tox21_110001=Tox21_201562; viability, 1 nM T3 present, 24 h

Compound `CNC(=O)Oc1cccc2c1OC(C)(C)O2` [Bendiocarb] has a CC50 at 24 h greater than 90 µM.

Same assay, conditions: rat, gh3-tre-luc cells, AC50 (uM) modified / 1000, Tox21_110001=Tox21_202294; viability, 1 nM T3 present, 24 h

Compound `CCOP(=S)(OCC)SCn1c(=O)oc2cc(Cl)ccc21` [Phosalone] has a CC50 at 24 h greater than 100 µM.

Same assay, conditions: rat, gh3-tre-luc cells, AC50 (uM) modified / 1000, Tox21_110001=Tox21_300811; viability, 1 nM T3 present, 24 h

`CCOP(=S)(OCC)SCn1c(=O)oc2cc(Cl)ccc21` [Phosalone] gave a CC50 at 24 h of 80.4 µM.

Same assay, conditions: rat, gh3-tre-luc cells, AC50 (uM) modified / 1000, Tox21_110001=Tox21_301914; viability, 1 nM T3 present, 24 h

Work on `CC(C)OC(=O)C(O)(c1ccc(Cl)cc1)c1ccc(Cl)cc1` [Chloropropylate] yielded a CC50 at 24 h of 74.2 µM.

Same assay, conditions: rat, gh3-tre-luc cells, AC50 (uM) modified / 1000, Tox21_110001=Tox21_400013; viability, 1 nM T3 present, 24 h

Compound `O=[N+]([O-])c1c(Cl)c(Cl)cc(Cl)c1Cl` [2,3,5,6-Tetrachloronitrobenzene] has a CC50 at 24 h greater than 90 µM.

Same assay, conditions: rat, gh3-tre-luc cells, AC50 (uM) modified / 1000, Tox21_110001=Tox21_400051; viability, 1 nM T3 present, 24 h

With `O=S(=O)(O)C(F)(F)C(F)(F)C(F)(F)C(F)(F)F` [Potassium perfluorobutanesulfonate] the CC50 at 24 h was greater than 100 µM.

Source: PMC6792352, “Limited Chemical Structural Diversity Found to Modulate Thyroid Hormone Receptor in the Tox21 Chemical Library” (Environmental Health Perspectives, 2019)
